Reference: patent publication US12435059B2, “AMP-activated protein kinase inhibitors and methods of making and using the same” (The Regents of the University of Colorado, priority 2019, dated 2025)
Like-named read-outs stand apart in the source and are kept apart here.

Experiments:
Assay in all cases: biochemical
Assay type in all cases: binding
468 kinases [1] = target: 468 kinases (Homo sapiens, UniProt P04629); settings: TRKA; read-out: % Inhibition @ 100 nM
468 kinases [2] = target: 468 kinases (Homo sapiens, UniProt Q9Y2H1); settings: NDR2; read-out: % Inhibition @ 100 nM
468 kinases [3] = target: 468 kinases (Homo sapiens, UniProt Q7KZI7); settings: MARK2; read-out: % Inhibition @ 100 nM
468 kinases [4] = target: 468 kinases (Homo sapiens, UniProt P12931); settings: SRC; read-out: % Inhibition @ 100 nM
468 kinases [5] = target: 468 kinases (Homo sapiens, UniProt P42336, M1043I); settings: PIK3CA(M10431); read-out: % Inhibition @ 100 nM
468 kinases [6] = target: 468 kinases (Homo sapiens, UniProt Q9Y6M4); settings: CSNK1G3; read-out: % Inhibition @ 100 nM
468 kinases [7] = target: 468 kinases (Homo sapiens, UniProt P27361); settings: ERK1; read-out: % Inhibition @ 100 nM
468 kinases [8] = target: 468 kinases (Homo sapiens, UniProt P78362); settings: SRPK2; read-out: % Inhibition @ 100 nM
468 kinases [9] = target: 468 kinases (Homo sapiens, UniProt P43403); settings: ZAP70; read-out: % Inhibition @ 100 nM
468 kinases [10] = target: 468 kinases (Homo sapiens, UniProt Q8NE63); settings: HIPK4; read-out: % Inhibition @ 100 nM
468 kinases [11] = target: 468 kinases (Homo sapiens, UniProt P07949, M918T); settings: RET(M918T); read-out: % Inhibition @ 100 nM
468 kinases [12] = target: 468 kinases (Homo sapiens, UniProt P33981); settings: TTK; read-out: % Inhibition @ 100 nM
468 kinases [13] = target: 468 kinases (Homo sapiens, UniProt Q00535); settings: CDK5; read-out: % Inhibition @ 100 nM
468 kinases [14] = target: 468 kinases (Homo sapiens, UniProt P07949, V804L); settings: RET(V804L); read-out: % Inhibition @ 100 nM
468 kinases [15] = target: 468 kinases (Homo sapiens, UniProt Q9Y463); settings: DYRK1B; read-out: % Inhibition @ 100 nM
468 kinases [16] = target: 468 kinases (Homo sapiens, UniProt P00519); settings: read-out: % Inhibition @ 100 nM
468 kinases [17] = target: 468 kinases (Homo sapiens, UniProt Q15835); settings: GRK1; read-out: % Inhibition @ 100 nM
468 kinases [18] = target: 468 kinases (Homo sapiens, UniProt P80192); settings: MLK1; read-out: % Inhibition @ 100 nM
468 kinases [19] = target: 468 kinases (Homo sapiens, UniProt P10721, D816H); settings: KIT(D816H); read-out: % Inhibition @ 100 nM
468 kinases [20] = target: 468 kinases (Homo sapiens, UniProt P35916); settings: FLT4; read-out: % Inhibition @ 100 nM
468 kinases [21] = target: 468 kinases (Homo sapiens, UniProt P10721); settings: KIT; read-out: % Inhibition @ 100 nM
468 kinases [22] = target: 468 kinases (Homo sapiens, UniProt Q13627); settings: DYRK1A; read-out: % Inhibition @ 100 nM
468 kinases [23] = target: 468 kinases (Homo sapiens, UniProt Q52WX2); settings: SBK1; read-out: % Inhibition @ 100 nM
468 kinases [24] = target: 468 kinases (Homo sapiens, UniProt Q9BYT3); settings: STK33; read-out: % Inhibition @ 100 nM
468 kinases [25] = target: 468 kinases (Homo sapiens, UniProt O96017); settings: CHEK2; read-out: % Inhibition @ 100 nM
468 kinases [26] = target: 468 kinases (Homo sapiens, UniProt Q15139); settings: PRKD1; read-out: % Inhibition @ 100 nM
468 kinases [27] = target: 468 kinases (Homo sapiens, UniProt Q9Y4K4); settings: MAP4K5; read-out: % Inhibition @ 100 nM
468 kinases [28] = target: 468 kinases (Homo sapiens, UniProt P31751); settings: AKT2; read-out: % Inhibition @ 100 nM
468 kinases [29] = target: 468 kinases (Homo sapiens, UniProt P54760); settings: EPHB4; read-out: % Inhibition @ 100 nM
468 kinases [30] = target: 468 kinases (Homo sapiens, UniProt Q56UN5); settings: YSK4; read-out: % Inhibition @ 100 nM
468 kinases [31] = target: 468 kinases (Homo sapiens, UniProt Q8TDC3); settings: BRSK1; read-out: % Inhibition @ 100 nM
468 kinases [32] = target: 468 kinases (Homo sapiens, UniProt Q13153); settings: PAK1; read-out: % Inhibition @ 100 nM
468 kinases [33] = target: 468 kinases (Homo sapiens, UniProt P49840); settings: GSK3A; read-out: % Inhibition @ 100 nM

SMILES	inhibition at 0.1 µM (468 kinases [1])	inhibition at 0.1 µM (468 kinases [2])	inhibition at 0.1 µM (468 kinases [3])	inhibition at 0.1 µM (468 kinases [4])	inhibition at 0.1 µM (468 kinases [5])	inhibition at 0.1 µM (468 kinases [6])	inhibition at 0.1 µM (468 kinases [7])	inhibition at 0.1 µM (468 kinases [8])	inhibition at 0.1 µM (468 kinases [9])	inhibition at 0.1 µM (468 kinases [10])	inhibition at 0.1 µM (468 kinases [11])	inhibition at 0.1 µM (468 kinases [12])	inhibition at 0.1 µM (468 kinases [13])	inhibition at 0.1 µM (468 kinases [14])	inhibition at 0.1 µM (468 kinases [15])	inhibition at 0.1 µM (468 kinases [16]; ABL1 -nonphosphorylated)	inhibition at 0.1 µM (468 kinases [17])	inhibition at 0.1 µM (468 kinases [18])	inhibition at 0.1 µM (468 kinases [19])	inhibition at 0.1 µM (468 kinases [20])	other results
CCN(CC)CCNC(=O)c1c(C)[nH]c(/C=C2\C(=O)Nc3ccc(CCO)cc32)c1C [Compound No. 10, (Z)—N-(2-(Diethylamino)ethyl)-5-((5-(2-hydroxyethyl)-2-oxoindolin-3-ylidene)methyl)-2,4-dimethyl-1H-pyrrole-3-carboxamide]	95.5%	0%	6%	15%	0%	6%	0%	66%	6%	28%	65%	0%	0%	91.1%	75%	54%	39%	1%	6%	27%	inhibition at 0.1 µM (468 kinases [16]; ABL1 -phosphorylated): 44%; inhibition at 0.1 µM (468 kinases [21]): 80%; inhibition at 0.1 µM (468 kinases [22]): 74%; inhibition at 0.1 µM (468 kinases [23]): 40%; inhibition at 0.1 µM (468 kinases [24]): 70%; inhibition at 0.1 µM (468 kinases [25]): 83%; inhibition at 0.1 µM (468 kinases [26]): 0%; inhibition at 0.1 µM (468 kinases [27]): 52%; inhibition at 0.1 µM (468 kinases [28]): 4%; inhibition at 0.1 µM (468 kinases [29]): 3%; inhibition at 0.1 µM (468 kinases [30]): 90.4%; inhibition at 0.1 µM (468 kinases [31]): 29%; inhibition at 0.1 µM (468 kinases [32]): 0%; inhibition at 0.1 µM (468 kinases [33]): 3%
CCN(CC)CCNC(=O)c1c(C)[nH]c(/C=C2\C(=O)Nc3ccc(CCC(N)=O)cc32)c1C [Compound No. 16, (Z)-5-((5-(3-Amino-3-oxopropyl)-2-oxoindolin-3-ylidene)methyl)-N-(2-(diethylamino)ethyl)-2,4-dimethyl-1H-pyrrole-3-carboxamide]	97.4%	11%	40%	6%	12%	5%	13%	51%	60%	57%	68%	8%	0%	86%	0%	36%	37%	5%	33%	56%	inhibition at 0.1 µM (468 kinases [21]): 8%; inhibition at 0.1 µM (468 kinases [22]): 93.3%; inhibition at 0.1 µM (468 kinases [23]): 58%; inhibition at 0.1 µM (468 kinases [24]): 78%; inhibition at 0.1 µM (468 kinases [25]): 93.2%; inhibition at 0.1 µM (468 kinases [26]): 0%; inhibition at 0.1 µM (468 kinases [27]): 53%; inhibition at 0.1 µM (468 kinases [28]): 0%; inhibition at 0.1 µM (468 kinases [29]): 0%; inhibition at 0.1 µM (468 kinases [30]): 98.2%; inhibition at 0.1 µM (468 kinases [31]): 27%; inhibition at 0.1 µM (468 kinases [32]): 0%; inhibition at 0.1 µM (468 kinases [33]): 10%
